Source: paper PMC10308239, “Light-driven Proton Pumps as a Potential Regulator for Carbon Fixation in Marine Diatoms” (Microbes and Environments, 2023)

How the values were obtained:
PngR = molecular target: T1, PngR (Pseudo-nitzschia granii, UniProt A0A0A7RP02); assay: HPLC of retinal oxime isomers from purified holoprotein; absorption spectrum; assay type: binding; conditions: covalent; chromophore; light- and dark-adapted samples; 50 mM Tris-HCl pH 7.0, 1 M NaCl, 0.05% DDM
T1 construct: gene RHO; full length, E. coli codon-optimised, C-terminal His6 tag (pET21a NdeI-XhoI), expressed in E. coli BL21(DE3) with all-trans retinal, purified in DDM

Asp91 (position 91, …) = assay: UV-vis; conditions: room temperature (approximately 25°C), 1 M NaCl, Buffer A: 50 mM Tris-HCl, 0.05% (w/v) DDM, pH adjusted by addition of HCl, Dark/ground (unphotolysed) state with all-trans retinal, measured under room light, DDM-solubilised, folded (reversibility checked)

For `CC1=C(/C=C/C(C)=C/C=C/C(C)=C/C=O)C(C)(C)CCC1` [all-trans retinal], the “HPLC of retinal oxime isomers from purified holoprotein; absorption spectrum” value (PngR) was “In light- and dark-adapted samples, the isomeric state of retinal was predominantly all-trans”.

B1: PngR (Pseudo-nitzschia granii rhodopsin, xanthorhodopsin-like light-driven proton pump) (Pseudo-nitzschia granii) (protein)
chain: MVTANQFTIVYDVLSFSLATMMATTIFLWMRVPSVHEKYKSALIISGLVTFIAAYHYLRIFNSWTEAYEWTAEGELSATASPFNDAYRYMDWLLTVPLLLIEIILVMKLPADESRSKATTLGIASAAMIAIGYPGELAMSDDSLGTRWVYWIGAMLPFLYIVQTLLVGLNDATQSEADPAIRDLIKGVQWWTVISWCTYPVVYVFPMMGITGTNAIVGIQLGYSVSDIISKCGVGLMIYQITIAKSYALKKGNEETPLYG
In the case of B1, the pKa (Asp91 (position 91, …)) is reported as “approximately 5.0”.
